Measurements: patent publication US20030092010A1, “Molecular switches” (priority 1999, published 2003)
*1 amine or outer side, *2 acyl side, *3 side chain or, on linkers, in order; H or OH if unused. Where a SMILES comes first, the peptide text is derived from it. Bridges are numbered along the chain shown (N, C = ends). Roman numbers before positions name the chains, in order. [ ]: non-standard residue; d: D form. Actinocin(9to1) = Cc1c2oc3c(C)ccc(C(=O)[*:1])c3nc-2c(C(=O)[*:2])c(N)c1=O; NMeV = CN[C@H](C(=O)O)C(C)C; Sar = CNCC(=O)O

Experiments:
[1] = tested on: DNA sequence AGCTTGGCG; assay: phage ELISA: zinc finger phage binding to DNA target in presence and absence of actinomycin D; conditions: FIG. 2; phage AD clone 1 and 6
Experimental: Essentially the method was the same as used in the previous section using four rounds of a preselection step followed by a selection step, washing and elution. Differences in the method are described. The preselection step comprised of 7.5 μmol of biotinylated DNA target site immobilised on 18.75 μl streptavidin coated beads (Dynal) in a 100 μl mixture containing 4 μl phage library 96 μl PBS, 2% Marvel. 1% Tween-20. 50 μM ZnCl2 for 1 hour at room temperature with constant mixing. Phage selections were made in streptavidin coated tubes with the phage supernatant, 5 nM biotinylated target DNA, 10 μM actinomycin D in the presence of 1 μg poly [d(I-C)] competitor. The selections were incubated for 1 hour at room temperature. The bound phage were washed and eluted as described above.
ELISA was performed as described above but using 5 nM biotinylated target DNA. 0.25 μg poly[d(I−C)] competitor in the assay and 10 μM actinomycin D where appropriate. Phage were sequenced using Big Dye Terminator Cycle Sequencing Kit (Perkin Elmer Biosystems) and automated sequencing.

[2] = tested on: DNA target AGCTTGGCG; assay: dissociation of zinc finger phage from DNA target by actinomycin D; assay type: binding
Experimental: (§1) This example describes phage that bound DNA targets with higher affinity in the absence of ligand. These phage were isolated using either: (a) the same method as in example 1.1, or (b) by selection in the absence of small molecule and phage elution from DNA using a small molecule.
(§2) Phage selection is over 4 rounds. Binding reactions contain […] biotinylated DNA site immobilised on 50 mg streptavidin coated beads (Dynal) and a 1 ml solution of ;zinc finger phage library (as described in 1.1) Reactions were incubated for 1 h on a rolling platform. After this time, beads were washed 20 times as described in 1.1 and finally phage were eluted from the beads over 5 minutes using a solution containing ligand (10 μM Distamycin A, or 1 μM Actinomycin D in PBS/Zn).
The actinomycin D sensitive clone was selected with the DNA target AGCTTGGCG and its helices were sequenced as: […]

[3] = tested on: DNA sequence AAAAAGGCG; assay: phage ELISA: zinc finger phage binding to DNA target site in presence and absence of distamycin A; conditions: FIG. 1; phage clone 3 (3/2F) and clone 4 (4/EF)
[4] = tested on: DNA target AAAAAGCGGAAAAA; assay: dissociation of zinc finger phage from DNA target by distamycin A; assay type: binding
Experimental: as §1, §2
Some phage isolated by either of the above methods (a or b) bound DNA in the absence of ligand but could be displaced by concentrations of distamycin A at 10 μM and actinomycin D at 1 μM. The distamycin sensitive clone was selected using the DNA target AAAAAGCGGAAAAA and its helices were sequenced as: […]

[5] = tested on: CAT reporter gene downstream of the sequence AAAAAAGGCG; assay: transient transfection CAT reporter assay with zinc finger-HSV VP16 fusion; assay type: cell-based; conditions: in the presence of Distamycin A; zinc finger-HSV VP16 fusion cotransfected
From the text: A reporter system is produced which produces a reporter signal conditionally depending on the binding of the zinc finger DNA binding molecule to its target DNA sequence.
A transient transfection system using zinc finger transcription factors is produced as described in Choo, Y., et al., (1997) J. Mol. Biol 273:525-532. This system comprises an expression plasmid which produces a phage-selected zinc finger fused to the activation domain of HSV VP 16. and a reporter plasmid which contains the recognition sequence of the zinc finger upstream of a CAT reporter gene.
Thus, a zinc finger which recognises the DNA sequence AAAAAAGGCG is selected by phage display as described in Example 1. By the method of the preceding examples said zinc finger is used to construct transcription factors as described above.
A transient expression experiment is conducted, wherein the CAT reporter gene on the reporter plasmid is placed downstream of the sequence AAAAAAGGCG. The reporter plasmid is cotransfected with a plasmid vector expressing the zinc finger-HSV fision under the control of a constitutive promoter. No activation of CAT gene expression is observed.

[6] = phage bound DNA in the absence of ligand

| SMILES | effect of Actinomycin D concentration on binding of phage to the DNA sequence AGCTTGGCG [1] | dissociation / displacement of phage from DNA by actinomycin D ([2]; FIG. 6, actinomycin D sensitive clone) | actinomycin D concentration at which DNA-bound phage could be displaced [2, 6] | effect of Distamycin A concentration on binding of phage to the DNA sequence AAAAAGGCG [3] | dissociation / displacement of phage from DNA by distamycin A ([4]; FIG. 6, distamycin sensitive clone) | distamycin A concentration at which DNA-bound phage could be displaced [4, 6] | CAT reporter gene expression [5] |
| --- | --- | --- | --- | --- | --- | --- | --- |
| Cc1c2oc3c(C)ccc(C(=O)N[C@@H]4C(=O)N[C@H](C(C)C)C(=O)N5CCC[C@H]5C(=O)N(C)CC(=O)N(C)[C@@H](C(C)C)C(=O)O[C@@H]4C)c3nc-2c(C(=O)N[C@@H]2C(=O)N[C@H](C(C)C)C(=O)N3CCC[C@H]3C(=O)N(C)CC(=O)N(C)[C@@H](C(C)C)C(=O)O[C@@H]2C)c(N)c1=O [Actinomycin D] (I: T[dV]P[Sar][NMeV] / II: T[dV]P[Sar][NMeV]; ester I:1-I:C, II:1-II:C; linker I:N-II:N via Actinocin(9to1)) | causes phage binding to nucleic acid | dissociated from the DNA | 1 µM | – | – | – | – |
| Cn1cc(NC(=O)c2cc(NC(=O)c3cc(NC=O)cn3C)cn2C)cc1C(=O)NCCC(=N)N [Distamycin A] | – | – | – | causes phage binding to nucleic acid | dissociated from the DNA | 10 µM | CAT expression is observed |
